Experimental data published in US20230131966A1, “FUNGICIDAL AMIDES” (FMC Corporation, priority 2020, published 2023).

Experiments:
Assay type in all cases: in vivo
Phakopsora pachyrhizi = test: Test A: Asian soybean rust control on soybean seedlings; settings: for Test A disease control rating / pest or weed control at 250 ppm: 250 ppm, soybean seedlings, 100 = 100% disease control, 0 = no control; for Test A disease control rating (100 = 100% disease control, 0 = no disease control): rate 250 ppm, relative to the controls; for pest or weed control at 250 ppm: Phakopsora pachyrhizi, read-out: Test A disease control rating
Zymoseptoria tritici = test: Test C: wheat leaf blotch control on wheat seedlings; settings: for Test C disease control rating / pest or weed control at 250 ppm: 250 ppm, wheat seedlings, 100 = 100% disease control, 0 = no control; for Test C disease control rating (100 = 100% disease control, 0 = no disease control): rate 250 ppm, relative to the controls; for pest or weed control at 250 ppm: Zymoseptoria tritici, read-out: Test C disease control rating
[1] = test system: Erysiphe graminis f. sp. tritici; test: Test G: wheat powdery mildew control on wheat seedlings; settings: for Test G disease control rating / pest or weed control at 250 ppm: 250 ppm, 100 = 100% disease control, 0 = no control; for Test G disease control rating (100 = 100% disease control, 0 = no disease control): rate 250 ppm, relative to the controls; for pest or weed control at 250 ppm: Blumeria graminis, read-out: Test G disease control rating
Plasmopara viticola = test: Test D: grape downy mildew control on grape seedlings; settings: for Test D disease control rating / pest or weed control at 250 ppm: 250 ppm, 100 = 100% disease control, 0 = no control; for Test D disease control rating (100 = 100% disease control, 0 = no disease control): rate 250 ppm, relative to the controls; for pest or weed control at 250 ppm: Plasmopara viticola, read-out: Test D disease control rating
Phytophthora infestans = test: whole plant or invertebrate; settings: tomato seedlings; for Test F disease control rating: 250 ppm; for Test F disease control rating / pest or weed control at 250 ppm: 100 = 100% disease control, 0 = no control; for Test F disease control rating (100 = 100% disease control, 0 = no disease control): rate 250 ppm, relative to the controls; for pest or weed control at 250 ppm: Phytophthora infestans, in Solanum lycopersicum, read-out: Test F disease control rating, 250 ppm
[2] = test system: Puccinia recondita f. sp. tritici; test: Test B: wheat leaf rust control on wheat seedlings; settings: for Test B disease control rating / pest or weed control at 250 ppm: 250 ppm, wheat seedlings, 100 = 100% disease control, 0 = no control; for Test B disease control rating (100 = 100% disease control, 0 = no disease control): rate 250 ppm, relative to the controls; for pest or weed control at 250 ppm: Puccinia recondita, read-out: Test B disease control rating
Botrytis cinerea = test: Test E: tomato Botrytis control on tomato seedlings; settings: for Test E disease control rating / pest or weed control at 250 ppm: 250 ppm, 100 = 100% disease control, 0 = no control; for Test E disease control rating (100 = 100% disease control, 0 = no disease control): rate 250 ppm, relative to the controls; for pest or weed control at 250 ppm: Botrytis cinerea, read-out: Test E disease control rating

CCC(OC(=O)[C@H](C)NC(=O)c1nccc(OC)c1O)C1CCCCC1 (single isomer, unassigned) [Compound 182]
Test A disease control rating (Phakopsora pachyrhizi): 100% | Test C disease control rating (Zymoseptoria tritici): 45% | Test G disease control rating [1]: 0% | Test D disease control rating (Plasmopara viticola): 15% | Test F disease control rating (Phytophthora infestans): 0% | Test B disease control rating [2]: 0% | Test E disease control rating (Botrytis cinerea): 0%

COc1ccnc(C(=O)NC(C)C(=O)OC(C)c2ccccc2Cc2ccc(F)cc2)c1O (mixture of isomers) [Compound 13]
Test A disease control rating (Phakopsora pachyrhizi): 100% | Test C disease control rating (Zymoseptoria tritici): 73% | Test G disease control rating [1]: 0% | Test D disease control rating (Plasmopara viticola): 50% | Test F disease control rating (Phytophthora infestans): 0% | Test B disease control rating [2]: 100% | Test E disease control rating (Botrytis cinerea): 0%

COc1ccnc2c(=O)n([C@@H](C)C(=O)OC(C)c3ccc(C4CCCCC4)cc3)c(=O)oc12 (single isomer, unassigned) [Compound 195]
Test A disease control rating (100 = 100% disease control, 0 = no disease control) (Phakopsora pachyrhizi): 100% | Test C disease control rating (100 = 100% disease control, 0 = no disease control) (Zymoseptoria tritici): 83% | Test G disease control rating (100 = 100% disease control, 0 = no disease control) [1]: 0% | Test D disease control rating (100 = 100% disease control, 0 = no disease control) (Plasmopara viticola): 17% | Test F disease control rating (100 = 100% disease control, 0 = no disease control) (Phytophthora infestans): 0% | Test B disease control rating (100 = 100% disease control, 0 = no disease control) [2]: 99% | Test E disease control rating (100 = 100% disease control, 0 = no disease control) (Botrytis cinerea): 0%

COc1ccnc(C(=O)NC(C)C(=O)OC(C#N)c2ccccc2)c1O (mixture of isomers) [Compound 159]
Test A disease control rating (Phakopsora pachyrhizi): 0% | Test C disease control rating (Zymoseptoria tritici): 0% | Test G disease control rating [1]: 0% | Test D disease control rating (Plasmopara viticola): 11% | Test F disease control rating (Phytophthora infestans): 0% | Test B disease control rating [2]: 0% | Test E disease control rating (Botrytis cinerea): 0%

COc1ccnc(C(=O)NC(C)C(=O)OC(C)c2ncc(C(F)(F)F)cc2Cl)c1O (mixture of isomers) [Compound 166]
Test A disease control rating (Phakopsora pachyrhizi): 97% | Test C disease control rating (Zymoseptoria tritici): 0% | Test G disease control rating [1]: 0% | Test D disease control rating (Plasmopara viticola): 15% | Test F disease control rating (Phytophthora infestans): 0% | Test B disease control rating [2]: 68% | Test E disease control rating (Botrytis cinerea): 0%

CCC(OC(=O)[C@H](C)NC(=O)c1nccc(OC)c1O)C1CCCCC1 (mixture of isomers) [Compound 84, N-[(3-hydroxy-4-methoxy-2-pyridinyl)carbonyl]-L-alanine 1-cyclohexylpropyl ester]
pest or weed control at 250 ppm (Phakopsora pachyrhizi): 100% | pest or weed control at 250 ppm (Zymoseptoria tritici): 57% | pest or weed control at 250 ppm [1]: 0% | pest or weed control at 250 ppm (Plasmopara viticola): 21% | pest or weed control at 250 ppm (Phytophthora infestans): 0% | pest or weed control at 250 ppm [2]: 100% | pest or weed control at 250 ppm (Botrytis cinerea): 0%

COc1ccnc(C(=O)N[C@@H](C)C(=O)OC(C)c2ccc(CC3CCCCC3)cc2)c1OC(C)=O (single isomer, unassigned) [Compound 128]
Test A disease control rating (Phakopsora pachyrhizi): 95% | Test C disease control rating (Zymoseptoria tritici): 83% | Test G disease control rating [1]: 0% | Test D disease control rating (Plasmopara viticola): 57% | Test F disease control rating (Phytophthora infestans): 0% | Test B disease control rating [2]: 90% | Test E disease control rating (Botrytis cinerea): 0%

COc1ccnc(C(=O)N(C)C(C)C(=O)OC(C)c2ccc(C3CCCCC3)cc2)c1O (mixture of isomers) [Compound 193]
Test A disease control rating (100 = 100% disease control, 0 = no disease control) (Phakopsora pachyrhizi): 87% | Test C disease control rating (100 = 100% disease control, 0 = no disease control) (Zymoseptoria tritici): 3% | Test G disease control rating (100 = 100% disease control, 0 = no disease control) [1]: 0% | Test D disease control rating (100 = 100% disease control, 0 = no disease control) (Plasmopara viticola): 74% | Test F disease control rating (100 = 100% disease control, 0 = no disease control) (Phytophthora infestans): 0% | Test B disease control rating (100 = 100% disease control, 0 = no disease control) [2]: 74% | Test E disease control rating (100 = 100% disease control, 0 = no disease control) (Botrytis cinerea): 0%

CCC(OC(=O)C(C)NC(=O)c1nccc(OC)c1O)c1ccc(C2CCCCC2)cc1 (mixture of isomers) [Compound 72]
Test A disease control rating (Phakopsora pachyrhizi): 100% | Test C disease control rating (Zymoseptoria tritici): 27% | Test G disease control rating [1]: 35% | Test D disease control rating (Plasmopara viticola): 62% | Test F disease control rating (Phytophthora infestans): 0% | Test B disease control rating [2]: 92% | Test E disease control rating (Botrytis cinerea): 0%

COc1ccnc(C(=O)N[C@@H](C)C(=O)OC(C)c2ccc(F)cc2Cc2ccccc2)c1OC(C)=O (single isomer, unassigned) [Compound 37]
Test A disease control rating (Phakopsora pachyrhizi): 100% | Test C disease control rating (Zymoseptoria tritici): 89% | Test G disease control rating [1]: 0% | Test D disease control rating (Plasmopara viticola): 29% | Test F disease control rating (Phytophthora infestans): 0% | Test B disease control rating [2]: 99% | Test E disease control rating (Botrytis cinerea): 0%

CCC(OC(=O)[C@H](C)NC(=O)c1nccc(OC)c1OC(C)=O)C1CCCCC1 (mixture of isomers) [Compound 83, N-[[3-(acetyloxy)-4-methoxy-2-pyridinyl]carbonyl]-L-alanine 1-cyclohexylpropyl ester]
pest or weed control at 250 ppm (Phakopsora pachyrhizi): 100% | pest or weed control at 250 ppm (Zymoseptoria tritici): 97% | pest or weed control at 250 ppm [1]: 0% | pest or weed control at 250 ppm (Plasmopara viticola): 27% | pest or weed control at 250 ppm (Phytophthora infestans): 0% | pest or weed control at 250 ppm [2]: 100% | pest or weed control at 250 ppm (Botrytis cinerea): 0%

COc1ccnc(C(=O)N[C@@H](C)C(=O)OC(C2CCCCC2)C2CCCCC2)c1OC(C)=O [Compound 46]
Test A disease control rating (Phakopsora pachyrhizi): 100% | Test C disease control rating (Zymoseptoria tritici): 68% | Test G disease control rating [1]: 91% | Test D disease control rating (Plasmopara viticola): 22% | Test F disease control rating (Phytophthora infestans): 0% | Test B disease control rating [2]: 68% | Test E disease control rating (Botrytis cinerea): 0%

COc1ccnc(C(=O)NC(C)C(=O)OC(C)c2ccncc2)c1O (racemic) [Compound 14]
pest or weed control at 250 ppm (Phakopsora pachyrhizi): 0% | pest or weed control at 250 ppm (Zymoseptoria tritici): 12% | pest or weed control at 250 ppm [1]: 0% | pest or weed control at 250 ppm (Plasmopara viticola): 48% | pest or weed control at 250 ppm (Phytophthora infestans): 0% | pest or weed control at 250 ppm [2]: 0% | pest or weed control at 250 ppm (Botrytis cinerea): 0%

COc1ccnc(C(=O)N[C@@H](C)C(=O)OC(C)c2ccccc2Cc2ccc(F)cc2)c1O (single isomer, unassigned) [Compound 39]
Test A disease control rating (Phakopsora pachyrhizi): 100% | Test C disease control rating (Zymoseptoria tritici): 87% | Test G disease control rating [1]: 0% | Test D disease control rating (Plasmopara viticola): 16% | Test F disease control rating (Phytophthora infestans): 0% | Test B disease control rating [2]: 100% | Test E disease control rating (Botrytis cinerea): 57%

COc1ccnc(C(=O)N[C@@H](C)C(=O)OC(C)c2ccc(C3CC3)cc2)c1O (mixture of isomers) [Compound 66, N-[(3-hydroxy-4-methoxy-2-pyridinyl)carbonyl]-L-alanine 1-(4-cyclopropylphenyl)ethyl ester]
pest or weed control at 250 ppm (Phakopsora pachyrhizi): 100% | pest or weed control at 250 ppm (Zymoseptoria tritici): 73% | pest or weed control at 250 ppm [1]: 21% | pest or weed control at 250 ppm (Plasmopara viticola): 93% | pest or weed control at 250 ppm (Phytophthora infestans): 0% | pest or weed control at 250 ppm [2]: 100% | pest or weed control at 250 ppm (Botrytis cinerea): 0%

COc1ccnc(C(=O)NC(C)C(=O)OC(C)c2ccc(C#C[Si](C)(C)C)cc2)c1OC(C)=O (mixture of isomers) [Compound 80]
Test A disease control rating (Phakopsora pachyrhizi): 100% | Test C disease control rating (Zymoseptoria tritici): 98% | Test G disease control rating [1]: 0% | Test D disease control rating (Plasmopara viticola): 28% | Test F disease control rating (Phytophthora infestans): 0% | Test B disease control rating [2]: 100% | Test E disease control rating (Botrytis cinerea): 0%

COc1ccnc(C(=O)NC(C)C(=O)OC(C)c2cccc3ccccc23)c1O (stereo not shown) [Compound 114]
Test A disease control rating (Phakopsora pachyrhizi): 100% | Test C disease control rating (Zymoseptoria tritici): 77% | Test G disease control rating [1]: 0% | Test D disease control rating (Plasmopara viticola): 63% | Test F disease control rating (Phytophthora infestans): 0% | Test B disease control rating [2]: 100% | Test E disease control rating (Botrytis cinerea): 0%

CC(NC(=O)c1cccc(NC=O)c1O)C(=O)OC(C)c1ccc(C2CCCCC2)cc1 (mixture of isomers) [Compound 97]
Test A disease control rating (Phakopsora pachyrhizi): 98% | Test C disease control rating (Zymoseptoria tritici): 99% | Test G disease control rating [1]: 0% | Test D disease control rating (Plasmopara viticola): 100% | Test F disease control rating (Phytophthora infestans): 99% | Test B disease control rating [2]: 92% | Test E disease control rating (Botrytis cinerea): 0%

COc1ccnc(C(=O)N[C@@H](C)C(=O)OC(C)c2ccc(C(C)C)cc2)c1OC(C)=O (stereo partly shown) [Compound 117]
Test A disease control rating (Phakopsora pachyrhizi): 100% | Test C disease control rating (Zymoseptoria tritici): 94% | Test G disease control rating [1]: 0% | Test D disease control rating (Plasmopara viticola): 71% | Test F disease control rating (Phytophthora infestans): 0% | Test B disease control rating [2]: 100% | Test E disease control rating (Botrytis cinerea): 0%
